Data on 2 molecules can be found in paper PMC12751057, “The energy landscape of N-ribosidic bond cleavage catalysed by 2′-deoxynucleoside 5′-phosphate N-hydrolase 1” (Biochemical Journal, 2025).

SMILES strings stand for the structures. Substitutions are numbered along the chain they refer to.

For test [1], the target named is T1, 2′-deoxynucleoside 5′-phosphate N-hydrolase 1 (HsDNPH1) (Homo sapiens, UniProt O43598, E104Q).
T1 construct: gene DNPH1
T1 sequence (O43598 2-174 E104Q): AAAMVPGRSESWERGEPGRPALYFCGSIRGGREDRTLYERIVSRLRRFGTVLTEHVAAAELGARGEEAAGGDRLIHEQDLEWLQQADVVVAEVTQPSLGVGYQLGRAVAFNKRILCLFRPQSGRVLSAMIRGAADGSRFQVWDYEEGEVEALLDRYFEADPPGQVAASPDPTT
Nature of the test: ITC; also stopped-flow UV binding kinetics (KD app […]) and differential UV spectroscopy.

Test [2] addresses T2, 2′-deoxynucleoside 5′-phosphate N-hydrolase 1 (HsDNPH1) (Homo sapiens, UniProt O43598).
T2 construct: gene DNPH1
T2 sequence (O43598 2-174): T1 sequence (O43598 2-174 E104Q) with Q103E
The experiment in a line: single-turnover stopped-flow UV kinetics, k2/k1 ratio from global fit; steady-state hydrolysis. The format is biochemical.

Test [3] deals with T3, 2′-deoxynucleoside 5′-phosphate N-hydrolase 1 (HsDNPH1) (Homo sapiens, UniProt O43598, E55Q).
T3 construct: gene DNPH1
T3 sequence (O43598 2-174 E55Q): T1 sequence (O43598 2-174 E104Q) with E54Q, Q103E
The experiment in a line: stopped-flow burst and single-turnover kinetics of the purified variant (turnover, k burst). The test is classed as biochemical.

In test [4] the target is T2, 2′-deoxynucleoside 5′-phosphate N-hydrolase 1 (HsDNPH1). The experiment in a line: steady-state UV inhibition assay, competitive fit. The format is biochemical.

For the molecule `O=c1[nH]c(=O)n([C@H]2C[C@H](O)[C@@H](COP(=O)(O)O)O2)cc1CO` [5hmdUMP, 5-hydroxymethyl-2′-deoxyuridine 5′-monophosphate], the Kd came to 1.6 ± 0.4 µM in test [1] and 2.36 µM in test [2]. Further, the rate constant in test [3] worked out at 0.270 ± 0.001 s⁻¹.
For the molecule `O=P(O)(O)OC[C@H]1OC(O)[C@H](O)[C@@H]1O` (stereo partly shown) [ribose 5-phosphate], in test [4], the Ki (in general, the dissociation constant of the complex between target and ligand, obtained from inhibition or displacement) was 6900 ± 800 µM.
